{
  "source": "patent US5358947A",
  "about": "“Angiotensin II receptor blocking 2,3-substituted pyrazolo[1,5-a]-1,3,5-triazin-4(3H)-ones” (American Cyanamid Company, priority 1993, dated 1994)",
  "test_system": "ANGIOTENSIN II (AII) VASOPRESSOR RESPONSE",
  "assay": "AII Challenge: angiotensin II (AII) vasopressor response in conscious rats",
  "type": "in vivo",
  "parameters": "Response After AII / Change / Average Change: unit not given here",
  "settings": "for Response After AII / Change / Control Before AII: individual rat; for Control Before AII: in mmHg (unit assumed); for % Inhibition / Average Change: n = 2",
  "text": "By administering a compound of this invention to a rat, and then challenging with angiotensin II, a blockage of the vasopressor response is realized.\nConscious Male Okamoto-Aoki SHR, 16-20 weeks old, weighing approximately 330 g are purchased from Charles River Labs (Wilmington, Mass.). Conscious rats are restrained in a supine position with elastic tape. The area at the base of the tail is locally anesthetized by subcutaneous infiltration with 2% procaine. The ventral caudal artery and vein are isolated, and a cannula made of polyethylene (PE) 10-20 tubing (fused together by heat) is passed into the lower abdominal aorta and vena cava, respectively. The cannula is secured, heparinized (1,000 I.U./ml), sealed and the wound is closed. The animals are placed in plastic restraining cages in an upright position. The cannula is attached to s Statham P23Db pressure transducer, and pulsatile blood pressure is recorded to 10-15 minutes with a Gould Brush recorder. (Chan et al., (Drug Development Res., 18:75-94, 1989).\nAngiotensin II (human sequence, Sigma Chem. Co., St. Louis, Mo.) of 0.05 and 0.1 ug/kg i.v. is injected into all rats (predosing response.). Then a test compound, vehicle or a known angiotensin II antagonist is administered i.v., i.p. or orally to each set of rats. The two doses of angiotensin II are given to each rat again at 30, 60, 90, 120, 180, 240 and 300 minutes post dosing the compound or vehicle. The vasopressor response of angiotensin II by a compound is calculated using the vasopressor response (increase in systolic blood pressure) of angiotensin II of each rat predosing the compound as 100%. A compound is considered active if at 30 mg/kg i.v. it antagonized at least 50% of the response.",
  "key": {"[1]": {"settings": "10 mg/kg i.v., AII 0.05 mcg/kg, 30 min post dose"}, "[2]": {"settings": "10 mg/kg i.v., AII 0.05 mcg/kg, 30 min post dose, listed as Ex. 10"}, "[3]": {"settings": "10 mg/kg i.v., AII 0.05 mcg/kg, 60 min post dose"}, "[4]": {"settings": "10 mg/kg i.v., AII 0.05 mcg/kg, 60 min post dose, listed as Ex. 10"}, "[5]": {"settings": "10 mg/kg i.v., AII 0.1 mcg/kg, 30 min post dose"}, "[6]": {"settings": "10 mg/kg i.v., AII 0.1 mcg/kg, 30 min post dose, listed as Ex. 10"}, "[7]": {"settings": "10 mg/kg i.v., AII 0.1 mcg/kg, 60 min post dose"}, "[8]": {"settings": "10 mg/kg i.v., AII 0.1 mcg/kg, 60 min post dose, listed as Ex. 10"}, "[9]": {"settings": "20 mg/kg i.v., AII 0.05 mcg/kg, 90 min post dose"}, "[10]": {"settings": "20 mg/kg i.v., AII 0.05 mcg/kg, 90 min post dose, listed as Ex. 10"}, "[11]": {"settings": "20 mg/kg i.v., AII 0.05 mcg/kg, 120 min post dose"}, "[12]": {"settings": "20 mg/kg i.v., AII 0.05 mcg/kg, 120 min post dose, listed as Ex. 10"}, "[13]": {"settings": "20 mg/kg i.v., AII 0.05 mcg/kg, 180 min post dose"}, "[14]": {"settings": "20 mg/kg i.v., AII 0.05 mcg/kg, 180 min post dose, listed as Ex. 10"}, "[15]": {"settings": "20 mg/kg i.v., AII 0.05 mcg/kg, 240 min post dose"}, "[16]": {"settings": "20 mg/kg i.v., AII 0.05 mcg/kg, 240 min post dose, listed as Ex. 10"}, "[17]": {"settings": "20 mg/kg i.v., AII 0.05 mcg/kg, 300 min post dose, listed as Ex. 10"}, "[18]": {"settings": "20 mg/kg i.v., AII 0.05 mcg/kg, 300 min post dose"}, "[19]": {"settings": "20 mg/kg i.v., AII 0.1 mcg/kg, 90 min post dose"}, "[20]": {"settings": "20 mg/kg i.v., AII 0.1 mcg/kg, 90 min post dose, listed as Ex. 10"}, "[21]": {"settings": "20 mg/kg i.v., AII 0.1 mcg/kg, 120 min post dose"}, "[22]": {"settings": "20 mg/kg i.v., AII 0.1 mcg/kg, 120 min post dose, listed as Ex. 10"}, "[23]": {"settings": "20 mg/kg i.v., AII 0.1 mcg/kg, 180 min post dose, listed as Ex. 10"}, "[24]": {"settings": "20 mg/kg i.v., AII 0.1 mcg/kg, 180 min post dose"}, "[25]": {"settings": "20 mg/kg i.v., AII 0.1 mcg/kg, 240 min post dose, listed as Ex. 10"}, "[26]": {"settings": "20 mg/kg i.v., AII 0.1 mcg/kg, 240 min post dose"}, "[27]": {"settings": "20 mg/kg i.v., AII 0.1 mcg/kg, 300 min post dose"}, "[28]": {"settings": "20 mg/kg i.v., AII 0.1 mcg/kg, 300 min post dose, listed as Ex. 10"}},
  "note": "“And” between values parts separate entries of the source, which are not always exact repeats. Equal values may be shown once.",
  "data": [
    {"smiles": "CCCCc1nc2cc(-c3ccccc3)nn2c(=O)n1Cc1ccc(-c2ccccc2-c2nnn[nH]2)cc1", "note": "[Example 10, 2-Butyl-7-phenyl-3-[[2'-(1H-tetrazol-5-yl)[1,1'-biphenyl]-4-yl]methyl]pyrazolo[1,5-a]-1,3,5-triazin-4(3H)-one]", "values": [
      {"measurement": "Response After AII", "setting": "[1]", "result": 235},
      {"measurement": "Change", "setting": "[2]", "result": "15 and 5"},
      {"measurement": "Response After AII", "setting": "[2]", "result": 215},
      {"measurement": "Control Before AII", "setting": "[2]", "result": "220 and 210"},
      {"measurement": "% Inhibition", "setting": "[1]", "result": 80, "unit": "%"},
      {"measurement": "Average Change", "setting": "[1]", "result": 10},
      {"measurement": "Control Before AII", "setting": "[3]", "result": 210},
      {"measurement": "Change", "setting": "[4]", "result": "45 and 15"},
      {"measurement": "Response After AII", "setting": "[4]", "result": "255 and 230"},
      {"measurement": "Control Before AII", "setting": "[4]", "result": 215},
      {"measurement": "% Inhibition", "setting": "[3]", "result": 40, "unit": "%"},
      {"measurement": "Average Change", "setting": "[3]", "result": 30},
      {"measurement": "Response After AII", "setting": "[5]", "result": 245},
      {"measurement": "Control Before AII", "setting": "[5]", "result": 210},
      {"measurement": "Change", "setting": "[6]", "result": "35 and 5"},
      {"measurement": "Response After AII", "setting": "[6]", "result": 215},
      {"measurement": "% Inhibition", "setting": "[5]", "result": 60, "unit": "%"},
      {"measurement": "Average Change", "setting": "[5]", "result": 20},
      {"measurement": "Response After AII", "setting": "[7]", "result": 250},
      {"measurement": "Change", "setting": "[8]", "result": "40 and 10"},
      {"measurement": "Response After AII", "setting": "[8]", "result": 215},
      {"measurement": "Control Before AII", "setting": "[8]", "result": "210 and 205"},
      {"measurement": "% Inhibition", "setting": "[7]", "result": 50, "unit": "%"},
      {"measurement": "Average Change", "setting": "[7]", "result": 25},
      {"measurement": "Change", "setting": "[9]", "result": 10},
      {"measurement": "Response After AII", "setting": "[10]", "result": "205 and 215"},
      {"measurement": "Control Before AII", "setting": "[10]", "result": "195 and 205"},
      {"measurement": "% Inhibition", "setting": "[9]", "result": 80, "unit": "%"},
      {"measurement": "Average Change", "setting": "[9]", "result": 10},
      {"measurement": "Response After AII", "setting": "[11]", "result": 210},
      {"measurement": "Change", "setting": "[12]", "result": "10 and 20"},
      {"measurement": "Response After AII", "setting": "[12]", "result": 185},
      {"measurement": "Control Before AII", "setting": "[12]", "result": "175 and 190"},
      {"measurement": "% Inhibition", "setting": "[11]", "result": 70, "unit": "%"},
      {"measurement": "Average Change", "setting": "[11]", "result": 15},
      {"measurement": "Control Before AII", "setting": "[13]", "result": 185},
      {"measurement": "Change", "setting": "[14]", "result": "10 and 25"},
      {"measurement": "Response After AII", "setting": "[14]", "result": "195 and 210"},
      {"measurement": "% Inhibition", "setting": "[13]", "result": 65, "unit": "%"},
      {"measurement": "Average Change", "setting": "[13]", "result": 17.5},
      {"measurement": "Response After AII", "setting": "[15]", "result": 190},
      {"measurement": "Change", "setting": "[16]", "result": "10 and 5"},
      {"measurement": "Response After AII", "setting": "[16]", "result": 205},
      {"measurement": "Control Before AII", "setting": "[16]", "result": "195 and 185"},
      {"measurement": "% Inhibition", "setting": "[15]", "result": 85, "unit": "%"},
      {"measurement": "Average Change", "setting": "[15]", "result": 7.5},
      {"measurement": "Change", "setting": "[17]", "result": "30 and 15"},
      {"measurement": "Response After AII", "setting": "[17]", "result": "220 and 195"},
      {"measurement": "Control Before AII", "setting": "[17]", "result": "190 and 180"},
      {"measurement": "% Inhibition", "setting": "[18]", "result": 55, "unit": "%"},
      {"measurement": "Average Change", "setting": "[18]", "result": 22.5},
      {"measurement": "Response After AII", "setting": "[19]", "result": 210},
      {"measurement": "Change", "setting": "[20]", "result": "10 and 0"},
      {"measurement": "Response After AII", "setting": "[20]", "result": 215},
      {"measurement": "Control Before AII", "setting": "[20]", "result": "205 and 210"},
      {"measurement": "% Inhibition", "setting": "[19]", "result": 90, "unit": "%"},
      {"measurement": "Average Change", "setting": "[19]", "result": 5},
      {"measurement": "Response After AII", "setting": "[21]", "result": 200},
      {"measurement": "Change", "setting": "[22]", "result": "5 and 10"},
      {"measurement": "Response After AII", "setting": "[22]", "result": 205},
      {"measurement": "Control Before AII", "setting": "[22]", "result": "200 and 190"},
      {"measurement": "% Inhibition", "setting": "[21]", "result": 85, "unit": "%"},
      {"measurement": "Average Change", "setting": "[21]", "result": 7.5},
      {"measurement": "Change", "setting": "[23]", "result": "20 and 15"},
      {"measurement": "Response After AII", "setting": "[23]", "result": "210 and 200"},
      {"measurement": "Control Before AII", "setting": "[23]", "result": "190 and 185"},
      {"measurement": "% Inhibition", "setting": "[24]", "result": 65, "unit": "%"},
      {"measurement": "Average Change", "setting": "[24]", "result": 17.5},
      {"measurement": "Change", "setting": "[25]", "result": "17 and 10"},
      {"measurement": "Response After AII", "setting": "[25]", "result": "217 and 195"},
      {"measurement": "Control Before AII", "setting": "[25]", "result": "200 and 185"},
      {"measurement": "% Inhibition", "setting": "[26]", "result": 73, "unit": "%"},
      {"measurement": "Average Change", "setting": "[26]", "result": 13.5},
      {"measurement": "Change", "setting": "[27]", "result": 30},
      {"measurement": "Response After AII", "setting": "[27]", "result": 235},
      {"measurement": "Response After AII", "setting": "[28]", "result": 205},
      {"measurement": "Control Before AII", "setting": "[28]", "result": "205 and 175"},
      {"measurement": "% Inhibition", "setting": "[27]", "result": 40, "unit": "%"},
      {"measurement": "Average Change", "setting": "[27]", "result": 30}
    ]}
  ]
}
